What was measured:
[1] = UV absorption spectrum in CH2Cl2; format: physicochemical
[2] = Photostability under irradiation at high dilution with a Heraeus 150 W Hg-lamp; settings: irradiation at high dilution (50 ppm)
[3] = Miscibility with cosmetic solvents such as Cétiol LC (liposolubility); settings: such as Cétiol LC (Cocoyl caprylate caprate)

CCCCC=CC(C)c1cc(C)cc(-n2nc3ccccc3n2)c1O (centres unmarked) [8% byproduct, 2-(benzotriazole-2-yl)-4-methyl-6-(3-octen-2-yl)-phenol]
UV absorption maximum, first (UV-B) band [1]: 306 nm
UV absorption maximum, second (UV-A) band [1]: 344 nm

C=CC(CCCCC)c1cc(C)cc(-n2nc3ccccc3n2)c1O (centres unmarked) [Example 1, 2-Benzotriazole-2-yl-4-methyl-6-(1-octen-3-yl)-phenol]
Photostability [2]: photostable
UV absorption maximum, first (UV-B) band [1]: 306 nm
UV absorption maximum, second (UV-A) band [1]: 344 nm
Miscibility with cosmetic solvents [3]: easily mixable
melting point: 37 to 38 °C

C=CC(CCC)c1cc(C(C)(C)CC(C)(C)C)cc(-n2nc3ccccc3n2)c1O (centres unmarked) [Example 2, 2-(benzotriazole-2-yl)-4-(1,1,3,3-tetramethylbutyl)-6-(1-hexen-3-yl)-phenol]
UV absorption maximum, first (UV-B) band [1]: 305 nm
UV absorption maximum, second (UV-A) band [1]: 343 nm
melting point: 80 to 81 °C

CCCCCC(CC)c1cc(C)cc(-n2nc3ccccc3n2)c1O (centres unmarked) [Example 3, 2-(benzotriazole-2-yl)-4-methyl-6-(3-octyl)-phenol]
UV absorption maximum, first (UV-B) band [1]: 306 nm
UV absorption maximum, second (UV-A) band [1]: 346 nm

CCCC(CC)c1cc(C(C)(C)CC(C)(C)C)cc(-n2nc3ccccc3n2)c1O (centres unmarked) [Example 4, 2-(benzotriazole-2-yl)-4-(1,1,3,3-tetramethylbutyl)-6-(3-hexyl)-phenol]
UV absorption maximum, first (UV-B) band [1]: 306 nm
UV absorption maximum, second (UV-A) band [1]: 346 nm

— patent US20010023293A1, “2-hydroxyphenyl benzotriazoles as uv-a/b filters” (ROCHE VITAMINS INC., priority 2000, published 2001)
